Source: US10919885B2, “Compounds and uses thereof” (Yumanity Therapeutics, Inc., priority 2018, dated 2021)

Columns and labels:
human SCD1 = human SCD1 (Homo sapiens (Human), UniProt O00767); assay: Yeast growth assay, strain expressing human SCD1 as the sole desaturase (reduced growth as surrogate for SCD inhibition); type: cell-based; details: yeast with OLE1 deleted expressing human SCD1 from a plasmid; growth read as OD600 after 40 h at 30° C.; top drug concentration 33.3 μM
In short: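 Human SCD1 or SCD5 expressed from a plasmid in OLE1-deleted yeast as the sole desaturase. Cells washed free of Tween and fatty acids, grown with compound in SD-Ura glucose medium 40 h at 30 °C; growth measured as OD600, reduced growth taken as SCD inhibition.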

human SCD5 = human SCD5 (Homo sapiens (Human), UniProt Q86SK9); assay: Yeast growth assay, strain expressing human SCD5 as the sole desaturase (reduced growth as surrogate for SCD inhibition); type: cell-based; details: yeast with OLE1 deleted expressing human SCD5 from a plasmid; growth read as OD600 after 40 h at 30° C.; top drug concentration 33.3 μM
Description: Strains expressing SCD1 or SCD5 as the sole desaturase, the human SCD1 and SCD5 genes were used to evaluate inhibition of SCD1/SCD5 using reduced growth as a surrogate for SCD inhibition. These yeast strains express human SCD1 or SCD5 from a plasmid harbored in a strain in which the yeast OLE1 gene is deleted.
All compound profiling experiments were performed using the same basic protocol. Yeast were cultured using standard techniques in complete synthetic media lacking uracil and containing yeast nitrogen base supplemented with 2% (w/v) glucose (SD-Ura) Starter cultures were inoculated in 3 mL SD-Ura media containing 0.01% tween and 0.2 mM palmitoleic and oleic acid. Cultures were incubated overnight in a 30° C. shaker incubator (225 rpm). Saturated morning cultures were centrifuged, washed in SD-Ura media lacking TWEEN-20 and fatty acids, and then diluted 1:20 in fresh SD-Ura media also lacking TWEEN-20 and fatty acids.
Compound administration was performed in two separate steps. First, 15 μL of SD-Ura was dispensed into clear 384-well assay plates using a MULTIDROP™ Combi reagent dispenser. […] The cultures described above were centrifuged and washed with media lacking TWEEN-20 or oleic and palmitoleic acids.
After yeast delivery, assay plates were incubated under humidified conditions at 30° C. for 40 h. Yeast growth was monitored by reading the OD600 of each well using a microplate reader (Perkin Elmer EnVision™).

human SCD1, sequence (O00767 whole entry): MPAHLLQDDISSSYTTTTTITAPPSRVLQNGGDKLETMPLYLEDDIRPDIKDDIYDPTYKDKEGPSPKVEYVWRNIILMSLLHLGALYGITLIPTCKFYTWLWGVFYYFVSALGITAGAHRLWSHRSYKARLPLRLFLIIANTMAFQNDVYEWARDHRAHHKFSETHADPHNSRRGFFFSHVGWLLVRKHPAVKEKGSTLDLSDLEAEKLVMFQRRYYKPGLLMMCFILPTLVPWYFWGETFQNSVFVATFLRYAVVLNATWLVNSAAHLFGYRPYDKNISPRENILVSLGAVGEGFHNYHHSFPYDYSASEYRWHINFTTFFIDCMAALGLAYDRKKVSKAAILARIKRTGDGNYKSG
human SCD5, sequence (Q86SK9 whole entry): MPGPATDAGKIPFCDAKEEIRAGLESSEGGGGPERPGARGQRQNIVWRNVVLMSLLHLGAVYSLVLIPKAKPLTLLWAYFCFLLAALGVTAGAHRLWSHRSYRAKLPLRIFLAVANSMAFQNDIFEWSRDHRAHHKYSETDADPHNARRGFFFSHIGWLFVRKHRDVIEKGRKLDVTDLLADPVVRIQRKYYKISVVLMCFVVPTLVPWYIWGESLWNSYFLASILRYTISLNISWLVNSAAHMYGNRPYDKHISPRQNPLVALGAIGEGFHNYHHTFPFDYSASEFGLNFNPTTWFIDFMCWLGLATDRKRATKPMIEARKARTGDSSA

Row | Structure (SMILES) | IC50 (human SCD1) | IC50 (human SCD5)
1 | O=C(c1cc(-c2ccc3c(c2)OCO3)on1)N1CCC(Oc2ccccc2)CC1 [Compound 298, [5-(1,3-benzodioxol-5-yl)isoxazol-3-yl]-(4-phenoxy-1-piperidyl)methanone] | 6.22 µM | 2.92 µM
2 | O=C(c1cc(-c2ccc3c(c2)OCO3)on1)N1CC2(C1)CN(c1ccccc1)C2 [Compound 222] | > 45 µM | > 45 µM
3 | N#Cc1ccc(-c2cc(C(=O)N3CCC[C@H]3c3ccccc3)no2)cc1 [Compound 404] | > 45 µM | > 45 µM
4 | O=C(Nc1cnn(Cc2ccccc2)c1)c1cc(-c2c(F)cccc2F)on1 [Compound 195] | > 45 µM | > 45 µM
5 | COc1ccc(C2CCCN2C(=O)c2cc(-c3ccc4nc(N(C)C)oc4c3)on2)cc1 (stereo not shown) [Compound 399] | 15 µM | 2.89 µM
6 | O=C(c1cc(-c2ccc3c(c2)OCO3)on1)N1CC2(C1)CC(O)(c1ccccc1)C2 [Compound 224] | > 45 µM | 0.95 µM
7 | O=C(Nc1cnn(Cc2ccccn2)c1)c1cc(-c2ccccc2)on1 [Compound 40] | > 45 µM | > 45 µM
8 | O=C(c1cc(-c2ccco2)on1)N1CC2(CCCC2)C1 [Compound 245] | > 45 µM | > 45 µM
9 | Cc1cc(C2CCCN2C(=O)c2cc(-c3ccco3)on2)on1 (stereo not shown) [Compound 357] | > 45 µM | > 45 µM
10 | N#Cc1ccc(-c2cc(C(=O)Nc3cnn(Cc4ccccc4)c3)no2)cc1 [Compound 128] | 0.98 µM | > 45 µM
11 | O=C(Nc1cnn(CC2CC2)c1)c1cc(-c2ccccc2)on1 [Compound 41] | > 45 µM | > 45 µM
12 | CC(C)(C)OC(=O)N1CC2(C1)CN(C(=O)c1cc(-c3ccccc3)on1)C2 [Compound 344] | > 45 µM | > 45 µM
13 | O=C(c1cc(-c2ccc3c(c2)OCO3)on1)N1CCC1c1ccc(F)cc1 (stereo not shown) [Compound 223, [5-(1,3-benzodioxol-5-yl)isoxazol-3-yl]-[2-(4-fluorophenyl)azetidin-1-yl]methanone] | > 45 µM | 3.26 µM
14 | N#Cc1ccc2c(C(=O)N3CCC[C@H]3c3ccccc3)noc2c1 [Compound 456] | > 45 µM | > 45 µM
15 | Cc1nnc(-c2cc(C(=O)Nc3cnn(Cc4ccccc4)c3)no2)s1 [Compound 163] | > 45 µM | > 45 µM
16 | O=C(Nc1cn(Cc2ccccc2)nn1)c1cc(-c2ccccc2)on1 [Compound 44] | > 45 µM | > 45 µM
17 | Cc1cnc(-c2cc(C(=O)Nc3cnn(Cc4ccccc4)c3)no2)s1 [Compound 142] | > 45 µM | > 45 µM
18 | Cc1ncc(-c2cc(C(=O)Nc3cnn(Cc4cccc(F)c4)c3)no2)o1 [Compound 67, N-(1-(3-fluorobenzyl)-1H-pyrazol-4-yl)-5-(2-methyloxazol-5-yl)isoxazole-3-carboxamide] | 0.99 µM | 7.89 µM
19 | O=C(c1cnn(Cc2ccncc2)c1)c1cc(-c2ccccc2)on1 [Compound 138] | > 45 µM | > 45 µM
20 | O=C(Nc1cnn(Cc2cccc(F)c2)c1)c1cc(-c2ccon2)on1 [Compound 72] | 0.084 µM | > 45 µM
21 | O=C(c1cc(-c2ccccn2)on1)N1CC(c2ccccc2)C1 [Compound 233, (3-phenylazetidin-1-yl)(5-(pyridin-2-yl)isoxazol-3-yl)methanone] | 2.61 µM | 3.12 µM
22 | O=C(c1cc(-c2ccc3c(c2)OCO3)on1)N1CCCC1c1cccnn1 (stereo not shown) [Compound 391] | > 45 µM | > 45 µM
23 | O=C(Nc1cnn(CC2CCOCC2)c1)c1cc(-c2ccco2)on1 [Compound 31] | > 45 µM | > 45 µM
